Consider 1 compound from publication PMC6346587, “Glucose 6-phosphate dehydrogenase 6-phosphogluconolactonase: characterization of the Plasmodium vivax enzyme and inhibitor studies” (Malaria Journal, 2019).

For experiment [1], the system named is P. falciparum Dd2. The arrangement: method as in PMID 24501782. The conditions noted are these: CQ resistant strain; cited from earlier work.
Experiment [2] deals with P. falciparum 3D7[hGrx1-roGFP2] cytosolic glutathione-dependent redox potential. Briefly: Cytosolic glutathione redox sensor hGrx1-roGFP2, confocal live cell imaging (CLSM). The settings on record: for Oxidation of the hGrx1-roGFP2 sensor: comparable to 1 mM DIA. It is filed as cell-based, Plasmodium falciparum. As to the method: A Leica confocal system TCS SP5 inverted microscope equipped with the objective HCX PL APO 63.0 × 1.30 GLYC 37 °C UV connected to a 37 °C temperature chamber was used. The argon laser power was set to 20%; scanning was performed at 400 Hz frequency and at a 512 × 512 pixel resolution. The smart gain and smart offset were 950 V and −0.9%, respectively. With a sequential scan, the hGrx1–roGFP2 probe was excited at 405 nm and at 488 nm and emission was detected at 500–550 nm. Laser intensity was adjusted to match the full dynamic range of the probe to the dynamic range of the detector (405 nm: 10%, 488 nm: 4%). […] The Leica LAS AF Lite software for fluorescence analysis was used. The 405/488 nm ratio was calculated. The graphs were plotted using the GraphPad Prism 5 software (San Diego, CA, USA). For live cell imaging, only parasites showing fluorescent signals at both 405 and 488 nm excitation and an intact host cell were chosen.
The effect of ML304 and the anti-malarial drugs ATS and CQ as reference drugs on P. falciparum were investigated in 4 h and 24 h incubation experiments. […] For 4 h experiments, trophozoite stage parasites (26–30 h) of 3D7^[hGrx1–roGFP2] and NF54^[hGrx1–roGFP2] (6–8% parasitaemia) were magnetically enriched (Miltenyi Biotec, Germany), counted by using a Neubauer hemocytometer (Brand GmbH, Germany), and returned to cell culture (at 2.0 × 10^4 trophozoites μL^−1) for at least 1 h to recover. 1.0 × 10^6 cells in 100 μL cell culture medium were placed into LoBind tubes (Eppendorf, Hamburg, Germany) for 4 h incubation experiments. The parasites were treated with ML304 at 1 μM, 50 μM, and 100 μM, or with the anti-malarial drugs ATS and CQ at approximately 50 × EC50 for 4 h under cell culture conditions. Subsequently, free thiol groups were blocked with 2 mM N-ethylmaleimide (NEM) for 15 min at 37 °C. For 24 h experiments, a 5 mL culture (5% haematocrit, 6–8% parasitaemia) of ring stage parasites (6–10 h post invasion) was treated with ML304 at 1 μM, 5 μM, and 10 μΜ, or the anti-malarial drugs ATS and CQ at approximately 4 × EC50. Prior to enrichment, cysteines were blocked with 2 mM NEM for 15 min at 37 °C. For 4 h and 24 h experiments, cells were washed after incubation and resuspended in Ringer’s solution (122.5 mM NaCl, 5.4 mM KCl, 1.2 mM CaCl2, 0.8 mM MgCl2, 11 mM D-glucose, 25 mM HEPES, 1 mM NaH2PO4, pH 7.4). 50 μL of cells (1.0 × 10^6 cells 50^−1 μL^−1) were seeded onto poly-L-lysine-coated μ-Slides 18 well (flat) (Ibidi, Martinsried, Germany) and measured using CLSM (confocal laser scanning microscopy) with excitation wavelengths at 405 nm and 488 nm. […] Each experiment was carried out three times. Between 10 and 20 microscopy images were taken each time, resulting in at least 30 experimental values per concentration and incubation time. The obtained ratio values were normalized to the control value, which was set to 100. All experiments were carried out within 6 weeks after the appearance of transfectants. Mean and standard error of the mean (SEM) are shown. A one-way ANOVA test with 95% confidence intervals with the Dunnett’s multiple comparison test (GraphPad Prism 5.0) was applied for statistical analysis of significance (*p < 0.05; **p < 0.01; ***p < 0.001).

On to `CCN1CCC[C@@H]1CNC(=O)c1ccc2c(c1)NC(=O)c1cccc(C)c1S2` [ML304], for which the “Active concentration on P. falciparum Dd2 in cell culture” value in experiment [1] is listed as “about 5 µM”. Further, the “Oxidation of the hGrx1-roGFP2 sensor” value in experiment [2] (5 µM, 24 h incubation) is “completely oxidize the sensor”; in experiment [2] (50 µM, 4 h incubation), “completely oxidize the sensor”. The “Effect on 405/488 nm ratio of hGrx1-roGFP2” value in experiment [2] (4 h incubation, trophozoites, 1, 50 and 100 µM (p < 0.05 at 1 µM, p < 0.001 at 50 and 100 µM)) is “significant effects”; in experiment [2] (24 h incubation, ring stage (p < 0.05 at 1 µM, p < 0.001 at 50 µM and 100 µM as printed)) it was “significantly increased”.
